Experimental data taken from patent US20090042991A1, “Methods of increasing natural killer cell activity for therapy” (priority 2005, published 2009).
“And” between values parts separate entries of the source, which are not always exact repeats. Equal entries are not always repeated. “Also recorded” adds a separate entry of the source.

Experiments:
[1] = Phase I trial: pharmacokinetics in plasma by LC/MS
Procedure: Pharmacokinetic (PK) studies were performed during cycle 1 using liquid chromatography/mass spectrometry (LC/MS) to measure both compounds in plasma. Heat shock protein 70 (Hsp70) was measured in plasma before and after treatment.

Hsp70 = experiment: Phase I trial: plasma Hsp70 by sandwich ELISA; type: in vivo, human
Procedure: Plasma Hsp70 was measured by a sandwich ELISA kit (Stressgen Bioreagents Victoria, British Columbia, CANADA) according to a modified protocol in house. In brief, Hsp70 in plasma specimens and serial concentrations of Hsp70 standard were captured onto 96-well plate on which anti-Hsp70 antibody was coated. Then captured Hsp70 was detected with a biotinylated anti-Hsp70 antibody followed by incubation with europium-conjugated streptavidin. After each incubation unbound materials were removed by washing. Finally, antibody-Hsp70 complex was measured by time resolved fluorometry of europium. Concentration of Hsp70 was calculated from a standard curve.

[2] = system: non-small cell lung carcinoma; experiment: Phase 1/2 study: tumor response (RECIST) with carboplatin and paclitaxel; type: in vivo, human; conditions: for Best Response / Target Lesions (percent change): one value per subject
[3] = Phase 1/2 lung carcinoma study: safety; type: in vivo, human
Procedure: Phase 1 (safety/PK/MTD (maximum tolerated dose) was followed by a Phase 2 randomized two arm portion. Two dose levels were evaluated in Phase 1.
Dosing was IV q 3 weeks for up to 6 cycles in the absence of dose-limiting toxicity or progression. […] The phase 2 primary endpoint is time to progression, with secondary endpoints of response rate, survival, and quality of life. Study pharmacodynamic parameters include NK cell activity and Hsp70 level.

NK cell activity = experiment: NK cell cytotoxic activity of patient PBMC (K562/eGFP flow cytometry), melanoma study; type: in vivo, human; conditions: for % tumor cell lysis pre-dose: baseline before dosing
Description: The following procedure can be employed to assay NK cell activity in a subject. The procedure is adapted from Kantakamalakul W, Jaroenpool J, Pattanapanyasat K. A novel enhanced green fluorescent protein (EGFP)-K562 flow cytometric method for measuring natural killer (NK) cell cytotoxic activity. J Immunol Methods. 2003 Jan. 15; 272:189-197, the entire teachings of which are incorporated herein by reference.
Materials and methods: Human erythroleukaemic cell line, K562, was obtained from American Type Culture Collection (CCL-243, American Type Culture Collection, Manassas, Va.), and cultured in RPMI-1640 medium (Cat#1875-093Gibco Invitrogen Corp, Carlsbad, Calif.) supplemented with 10% heat inactivated fetal calf serum (Gibco), 2 mM L-glutamin, 100 μg/ml streptomycin and 100 IU/ml penicillin at 37° C. with 5% CO2. K562 cells were transduced with retroviral vector which encode green fluorescent protein (eGFP). Stable cell line was selected with antibiotic, G418.
The subject's peripheral blood mononuclear cells (PBMCs) were prepared by clinical study sites and received in BD Vacutainer Cell Preparation Tube with sodium heparin (Product Number: 362753, Becton Dickinson, Franklin Lakes, N.J.).
Effector cells alone and target cells alone were used as controls. All tubes were incubated at 37° C. with 5% CO2 for about 3.5 hr. Ten microliters of propidium iodide (PI) at a concentration of 1 mg/mL was added t each tube including effector and target control tubes and then incubated at room temperature for 15 min.
Cytotoxic activity was analyzed with a FACSCalibur flow cytometer (Becton Dickinson). Linear amplification of the forward and side scatter (FSC/SSC) signals, as well as logarithmic amplification of eGFP and PI emission in green and red fluorescence were obtained. Ten thousand events per sample tube with no gating for acquisition were collected for analysis. Data analysis for two-parameter dot plots for eGFP versus PI was performed using CELLQuest (Becton Dickinson Biosciences) software to enumerate live and dead target cells. Debris and dead cells were excluded by setting a threshold of forward light scatter.
(§1) The study will continue to Stage 2 if 7 or more patients have a response of stable disease or better, or at least 2 patients have a partial response or better. A safety assessment was performed with the first 6 patients enrolled as the weekly dose schedule had not previously been studied in humans. The primary endpoint is non-progression rate (NPR) at 3 months and response rate. Pharmacodynamic parameters include pre and post-dose NK cell activity in blood and when possible, tumor biopsies.
(§2) Best Response indicates an evaluation of the patient's tumor: SD indicates less than 20% of an increase and less than 30% of a decrease in the sum of the longest diameters as compared to baseline; and PD=at least a 20% increase in the sum of the longest diameters as compared to baseline. NK Activity indicates the change in NK activity before and after dosing.

Melanoma study: safety = type: in vivo, human
Procedure: The higher tolerated dose level was expanded to a total of 20 patients (Stage 1).
as §1

soft tissue sarcomas = experiment: Phase 2 study: tumor response with paclitaxel; type: in vivo, human
Description: as §2, with “Major inclusion criteria are refractory or recurrent soft tissue sarcomas other than gastrointestinal stromal tumor (GIST), with evidence of recent progression. […] Best” for “Best”, “tumor: PR=at least a 30% decrease in the sum of the longest diameters as compared to baseline;” for “tumor:”

[4] = Paclitaxel 175 + Cmpnd (1) 233 mg/M^2 (carboplatin AUC 6)
[5] = Paclitaxel 200 + Cmpnd (1) 266 mg/M^2 (carboplatin AUC 6)
[6] = Paclitaxel 80 + Cmpnd (1) 106 mg/M^2 weekly, Effector/Target 80:1, one value per subject
[7] = Paclitaxel 80 + Cmpnd (1) 213 mg/M^2 weekly, Effector/Target 80:1, one value per subject
[8] = Paclitaxel 80 + Cmpnd (1) 213 mg/M^2 weekly, Effector/Target (40:1), subject 15

In the case of `CN(NC(=O)CC(=O)NN(C)C(=S)c1ccccc1)C(=S)c1ccccc1` [Compound (1)], the PK linearity ([1]; Compound (1) 44-525 mg/m2, unaffected by paclitaxel dose) is reported as “linear PK”, the terminal-phase half life ([1]; human plasma, IV over 3 hours co-administered with paclitaxel, cycle 1) is reported as 56.4 ± 13.8 min and the “percent increase in Hsp70 plasma levels” value (Hsp70; Compound (1) 88 mg/m2 with paclitaxel, at least one patient) is reported as “about 90%”. For the same compound, the “increase in Hsp70 plasma concentrations” value (Hsp70; Compound (1) 175 mg/m2 with paclitaxel, two patients) was “more than doubled”, the “increase in Hsp70 plasma concentrations” value (Hsp70; Compound (1) 263 mg/m2 with paclitaxel, individual patients) was “roughly doubled; also recorded: more than 250%” and the “increase in Hsp70 plasma concentrations” value (Hsp70; Compound (1) 438 mg/m2 with paclitaxel, individual patients) was “roughly doubled and ≤ 500%”. The “Induction of Hsp70 protein in plasma” value (Hsp70; Compound (1) with paclitaxel, human plasma) was “dose dependent”, the “plasma Hsp70 levels in patients” value (Hsp70; paclitaxel 175 mg/m2 and Compound (1) 88 through 438 mg/m2) was “dramatically increased” and the “time-to-progression (Kaplan-Meier, FIG. 2)” value ([2]; Compound (1) with paclitaxel and carboplatin versus platin/taxane combinations, preliminary data) was “superior to the platin/taxane combination alone; also recorded: superior to prior platin/taxane combinations alone”. The “Best Response” value [2, 4] was “PR (at least a 30% decrease in the sum of the longest diameters as compared to baseline); also recorded: SD (less than 20% of an increase and less than 30% of a decrease in the sum of the longest diameters as compared to baseline)”, the “Target Lesions (percent change)” value [2, 4] was −34% and −24% and −62% and −5.9% and −30% and −67% and the “Best Response” value [2, 5] was “PR (at least a 30% decrease in the sum of the longest diameters as compared to baseline)”. For the same compound, the “Target Lesions (percent change)” value [2, 5] was −38% and −44%, the “patients achieving a partial response (PR)” value ([2]; Phase 1, eight of sixteen patients, with carboplatin and paclitaxel) was 50% and the target lesion size ([2]; each patient completing the study (#1-#8)) was “substantial decrease”. For the same compound, the “patients with best response of at least a 30% decrease in sum of longest diameters” value ([2]; of the 8 patients completing the study) was 5 patients, the “first cycle dose-limiting toxicities” value ([3]; Phase 1, Cohorts 1 and 2, 16 patients, with carboplatin AUC 6 and paclitaxel) was “No first cycle dose-limiting toxicities” and the “adverse effects (AEs)” value ([3]; Phase 1, usually Grade 1-2, with carboplatin and paclitaxel) was “arthralgia and myalgia, peripheral neuropathy, rash, nausea, and vomiting, fatigue, alopecia, edema, dehydration, constipation, and decreased blood counts”. For the same compound, the “tolerability of carboplatin:paclitaxel:Compound (1) combination” value ([3]; at the dose levels studied, safety profile similar to carboplatin:paclitaxel alone) was “well tolerated”, the “% tumor cell lysis post-dose” value (NK cell activity; Paclitaxel 80 + Cmpnd (1) 106 mg/M^2 weekly, 7 days after second dose, Effector/Target 80:1, one value per subject) was 7.74% and 2.43% and the “NK activity (change before and after dosing)” value (NK cell activity; [6]) was “increase; also recorded: decrease”. For the same compound, the “% tumor cell lysis post-dose” value (NK cell activity; Paclitaxel 80 + Cmpnd (1) 213 mg/M^2 weekly, 7 days after second dose, Effector/Target 80:1, one value per subject) was 10.77% and 19.78% and 26.52% and 8.64% and 18.77% and 5.2% and 26.31% and 7.2%, the “NK activity (change before and after dosing)” value (NK cell activity; [7]) was “increase; also recorded: no change; also recorded: decrease” and the “% tumor cell lysis post-dose” value (NK cell activity; [8]) was 10.01%. The “NK activity (change before and after dosing)” value (NK cell activity; [8]) was “(increase)”, the “% tumor cell lysis pre-dose” value (NK cell activity; [6]) was 2.32% and 6.13% and the “% tumor cell lysis pre-dose” value (NK cell activity; [7]) was 3.83% and 19.71% and 41.61% and 8.6% and 24.76% and 16.49% and 15.4% and 10.81%. The “% tumor cell lysis pre-dose” value (NK cell activity; [8]) was 3.5%, the “patients with statistically significant increase in NK cell activity pre- to post-dose” value (NK cell activity; original patients of Table 3) was “four of the original patients” and the adverse events (Melanoma study: safety; Stage 1, with paclitaxel 80 mg/m2 weekly) was “as expected for paclitaxel chemotherapy administration”. The dose-limiting toxicities (Melanoma study: safety; initial safety assessment, Compound (1) 106 or 213 mg/m2 with paclitaxel 80 mg/m2 weekly) was “absence of dose-limiting toxicities”, the “tolerability of the combination therapy” value (Melanoma study: safety; weekly schedule with paclitaxel) was “well-tolerated” and the “Best Response cycle 2” value (soft tissue sarcomas; Paclitaxel 80 + Cmpnd (1) 213 mg/M^2 weekly, one value per subject) was “SD (less than 20% of an increase and less than 30% of a decrease in the sum of the longest diameters as compared to baseline); also recorded: PD (at least a 20% increase in the sum of the longest diameters as compared to baseline)”. The “patients with at least a 20% increase in sum of longest diameters (PD)” value (soft tissue sarcomas; patients completing the study (#23-#29, #31-33)) was “five patients”, the “serious effects specifically attributable to Compound (1)” value (35 patients, 8 dose levels, with paclitaxel IV every 3 weeks) was “No serious effects” and the “tolerability of the combination” value (Phase I, with paclitaxel, adverse events consistent with those expected for paclitaxel alone) was “well-tolerated”.
